Laboratory results reported in patent US4241056A, “Penicillins and salts thereof” (Boehringer Ingelheim GmbH, priority 1978, dated 1980).
Values after ≈ are worked out from the molar mass of the structure shown.

Columns and labels:
E. coli ATCC 11775 = experiment: In vivo activity against experimental infection in mice; set-up: species or system mouse (NMRI); settings: Escherichia coli, ATCC11775, sc, 168 h, subcutaneous, 7 days observation, read-out: ED50 (dose at which 50% of the animals survived)
Procedure: A number of compounds of this invention were tested in vivo in mice against experimental infections. Bacteria E. coli ATCC 11775 and pseudomonas aeruginosa walter were used as pathogens. An intraperitoneal infection with 0.2 ml of a 5% mucin suspension of the bacteria was induced. This corresponds to about 2×10^6 germs E. coli and 8×10^5 germs pseudomonas/mouse. Female NMRI mice were divided into groups of 10 animals each, two control groups remained untreated, the remaining groups were treated with different doses of the respective penicillins for the determination of the ED50 (dose at which 50% of the animals survived). The groups with the E. coli infection were treated with the substance 3 times on the first day (1, 4 and 7 hours post-infectionem) and for 2 days thereafter twice a day. The groups with the pseudomonas infection were treated with the substance applied 6 times on the first day (1, 3, 6, 9, 12, and 15 hours post-infectionem) and for 2 days thereafter twice a day. The observation time was in both cases 7 days.

[1] = test system: pseudomonas aeruginosa ATCC 10145; experiment: MIC, serial dilution test in the microtiter system; format: cell-based; settings: ATCC10145, 18 h, pseud. aerug. ATCC 10145, 37° C., 18-20 hours
Procedure: (§1) The tests were performed according to the method of the serial dilution test in the microtiter system. The effect of the substances on bacteriostasis was examined in a fluid medium. The activity on bacteriostatis was examined at the following concentrations:
(§2) 10 gm of peptone, 8 gm of meat extract-oxoid, 3 gm of sodium chloride, 2 gm of sec. sodium phosphate were diluted with distilled water to 1000 ml (pH 7.2-7.4). Only in the test against streptococci 1% of glucose was added. The age of the primary cultures was about 20 hours. The standardizations of the pathogen suspension was effected by using a photometer according to "Eppendorf" (test tube diameter 14 mm, filter 546 nm) with the aid of the turbidity of a comparison suspension consisting of barium sulfate, this suspension being prepared by addition of 3.0 ml of 1% barium chloride solution to 97 ml of 1% sulfuric acid. After the standardization, streptococcus aronson were further diluted to a concentration of 1:15 and the other germs to a concentration of 1:1500 by menas of a sodium chloride solution.
(§3) 16 mg of the test substance were put into a 10 ml measuring flask and filled up to the mark with the solvent. The further dilution series was standardized with distilled water or the respective solvent.
(§4) The cavities of the microtiter plates were filled with 0.2 ml of nutrient medium. Then, 0.01 ml of the corresponding test substance dilution was added and inoculated with 0.01 ml of the standardized suspension. The bacteria were incubated at 37° C. for 18-20 hours. Control tests merely using the solvent were carried out simultaneously.
(§5) The measurement was carried out macroscopically to determine the minimal inhibitory (threshold) concentration, i.e. the lowest still bacteriostatically effective concentration.
(§6) Staphylococcus aureus SG 511, streptococcus aronson, streptococcus faecalis ATCC 10541, escherichia coli ATCC 9637, 11 775 and escherichia coli 12593/74 (β-lactamase carrier), pseudomonas aeruginosa hamburgensis and ATCC 10145, serratia marcescens ATCC 13 880, klebsiella pneumoniae ATCC 10 031 and 272 and proteus mirabilis hamburgensis.

[2] = test system: klebsiella pneumoniae 272; experiment: MIC, serial dilution test in the microtiter system; format: cell-based; settings: 18 h, klebs pneum. 272, 37° C., 18-20 hours
Procedure: as §1, §2, §3, §4, §5, §6

streptococcus aronson = experiment: MIC, serial dilution test in the microtiter system; format: cell-based; settings: 18 h, strept. aronson, 1% glucose added, 37° C., 18-20 hours
Procedure: as §1, §2, §3, §4, §5, §6

[3] = test system: Staphylococcus aureus SG 511; experiment: MIC, serial dilution test in the microtiter system; format: cell-based; settings: SG511, 18 h, Staph. Aureus SG 511, 37° C., 18-20 hours
Procedure: as §1, §2, §3, §4, §5, §6

[4] = test system: streptococcus faecalis ATCC 10541; experiment: MIC, serial dilution test in the microtiter system; format: cell-based; settings: Enterococcus faecalis, ATCC10541, 18 h; strept. faecal.; 37° C., 18-20 hours
Procedure: as §1, §2, §3, §4, §5, §6

[5] = test system: escherichia coli ATCC 11775; experiment: MIC, serial dilution test in the microtiter system; format: cell-based; settings: ATCC11775, 18 h, E. coli ATCC 11775, 37° C., 18-20 hours
Procedure: as §1, §2, §3, §4, §5, §6

[6] = test system: serratia marcescens ATCC 13 880; experiment: MIC, serial dilution test in the microtiter system; format: cell-based; settings: ATCC13, 18 h, serrat marcesc., 37° C., 18-20 hours
Procedure: as §1, §2, §3, §4, §5, §6

[7] = test system: proteus mirabilis hamburgensis; experiment: MIC, serial dilution test in the microtiter system; format: cell-based; settings: 18 h, prot. mirabilis, 37° C., 18-20 hours
Procedure: as §1, §2, §3, §4, §5, §6

[8] = test system: pseudomonas aeruginosa hamburgensis; experiment: MIC, serial dilution test in the microtiter system; format: cell-based; settings: 18 h, pseud. aerug. hamb., 37° C., 18-20 hours
Procedure: as §1, §2, §3, §4, §5, §6

[9] = test system: escherichia coli 12593/74 (β-lactamase carrier); experiment: MIC, serial dilution test in the microtiter system; format: cell-based; settings: 18 h, E. coli 12593/74 (β-lactamase carrier), 37° C., 18-20 hours
Procedure: as §1, §2, §3, §4, §5, §6

[10] = test system: klebsiella pneumoniae ATCC 10 031; experiment: MIC, serial dilution test in the microtiter system; format: cell-based; settings: 18 h, klebs pneum ATCC 10031, 37° C., 18-20 hours
Procedure: as §1, §2, §3, §4, §5, §6

[11] = test system: escherichia coli ATCC 9637; experiment: MIC, serial dilution test in the microtiter system; format: cell-based; settings: ATCC9637, 18 h, E. coli ATCC 9637, 37° C., 18-20 hours
Procedure: as §1, §2, §3, §4, §5, §6

[12] = Serum (blood) level in rats; format: in vivo; settings: rat, average from 3 rats; for concentration at 1 h: 60 min.; for concentration at 2 h: 120 min.; for concentration at 0.5 h: 30 min.
Procedure: For the determination of the serum level in rats, typical representatives of the penicillins according to the invention were administered at a dosage of 10 mg/kg subcutaneously or 100 mg/kg per os to groups of 3 female FW 49 rats (weight 100 to 130 gm) each. Blood tests taken from the heart were worked up, and the obtained sera were tested by the cylinder test-agar diffusion method on plates with sarcina lutea ATCC 15957. The samples were compared with standard curves.

Structure (SMILES) | ED50 (E. coli ATCC 11775) | MIC [1] | MIC [2] | MIC (streptococcus aronson) | MIC [3] | MIC [4] | MIC [5] | MIC [6] | MIC [7] | MIC [8] | MIC [9] | MIC [10] | MIC [11] | concentration at 1 h ([12]; oral 100 mg/kg) | concentration at 2 h ([12]; oral 100 mg/kg) | concentration at 1 h ([12]; sc, subcutaneous 10 mg/kg) | concentration at 2 h ([12]; sc, subcutaneous 10 mg/kg) | concentration at 0.5 h ([12]; oral 100 mg/kg) | concentration at 0.5 h ([12]; sc, subcutaneous 10 mg/kg)
CC1(C)S[C@@H]2[C@H](NC(=O)[C@H](NC(=O)Nc3cnc(Nc4ccccc4)nc3O)c3ccc(O)cc3)C(=O)N2[C@H]1C(=O)O [G, D-α-[3-(2-anilino-4-hydroxy-5-pyrimidyl)-ureido]-p-hydroxy-benzyl-penicillin sodium] | 8 mg/kg | 2.5 µg/mL | 5 µg/mL | 0.08 µg/mL | 0.3 µg/mL | 5 µg/mL | 1.25 µg/mL | 0.3 µg/mL | 2.5 µg/mL | 5 µg/mL | > 80 µg/mL | 10 µg/mL | 0.6 µg/mL | 600 ng/mL | 100 ng/mL | 5600 ng/mL | 1500 ng/mL | – | –
CC(=O)Nc1ncc(NC(=O)N[C@@H](C(=O)N[C@@H]2C(=O)N3[C@@H]2SC(C)(C)[C@@H]3C(=O)O)c2ccc(O)cc2)c(O)n1 [Compound E, D-α-[3-(acetylamino-4-hydroxy-pyrimidyl)-ureido]-p-hydroxybenzyl-penicillin sodium] | 15 mg/kg | 2.5 µg/mL | 80 µg/mL | 0.3 µg/mL | 1.25 µg/mL | 10 µg/mL | 2.5 µg/mL | 10 µg/mL | 1.25 µg/mL | 2.5 µg/mL | > 80 µg/mL | 80 µg/mL | 5 µg/mL | 13900 ng/mL | 13700 ng/mL | 5800 ng/mL | 7700 ng/mL | 13800 ng/mL | 4100 ng/mL
CC1(C)S[C@@H]2[C@H](NC(=O)[C@H](NC(=O)Nc3cnc(NCc4ccc(Cl)cc4)nc3O)c3ccc(O)cc3)C(=O)N2[C@H]1C(=O)O [O, D-α-[3-(2-p-chlorobenzylamino-4-hydroxy-5-pyrimidyl)-ureido]-p-hydroxybenzyl-penicillin sodium] | – | 5 µg/mL | 10 µg/mL | 0.02 µg/mL | 0.3 µg/mL | 10 µg/mL | 0.65 µg/mL | 1.25 µg/mL | 0.3 µg/mL | 10 µg/mL | 80 µg/mL | 20 µg/mL | 0.3 µg/mL | – | – | – | – | – | –
CN(C)C(=O)Nc1ncc(NC(=O)N[C@@H](C(=O)N[C@@H]2C(=O)N3[C@@H]2SC(C)(C)[C@@H]3C(=O)O)c2ccc(O)cc2)c(O)n1 [M] | – | 5 µg/mL (≈ 8.49 µM) | > 80 µg/mL | 0.3 µg/mL (≈ 0.51 µM) | 1.25 µg/mL (≈ 2.12 µM) | 80 µg/mL (≈ 136 µM) | 2.5 µg/mL (≈ 4.25 µM) | 10 µg/mL (≈ 17 µM) | 2.5 µg/mL (≈ 4.25 µM) | 5 µg/mL (≈ 8.49 µM) | > 80 µg/mL | > 80 µg/mL | 10 µg/mL (≈ 17 µM) | – | – | – | – | – | –
CC1(C)S[C@@H]2[C@H](NC(=O)[C@H](NC(=O)Nc3cnccc3O)c3ccccc3)C(=O)N2[C@H]1C(=O)O [S, D-α-[(4-hydroxy-3-pyridyl)-ureido]benzylpenicillin sodium, reference compound] | – | 20 µg/mL | – | – | – | – | 2.5 µg/mL | – | – | 20 µg/mL | – | – | 10 µg/mL | – | – | – | – | – | –
CNc1ncc(NC(=O)N[C@@H](C(=O)N[C@@H]2C(=O)N3[C@@H]2SC(C)(C)[C@@H]3C(=O)O)c2ccc(O)cc2)c(O)n1 [N, D-α-[3-(4-hydroxy-2-methylamino-5-pyrimidyl)-ureido]-p-hydroxybenzyl-penicillin sodium] | – | 2.5 µg/mL | 40 µg/mL | 0.08 µg/mL | 0.3 µg/mL | 10 µg/mL | 2.5 µg/mL | 5 µg/mL | 0.3 µg/mL | 2.5 µg/mL | > 80 µg/mL | 80 µg/mL | 2.5 µg/mL | – | – | – | – | – | –
CCCNc1ncc(NC(=O)N[C@@H](C(=O)N[C@@H]2C(=O)N3[C@@H]2SC(C)(C)[C@@H]3C(=O)O)c2ccc(O)cc2)c(O)n1 [P, D-α-[3-(4-hydroxy-2-propylamino-5-pyrimidyl)-ureido]-p-hydroxybenzyl-penicillin sodium] | – | 1.25 µg/mL | 10 µg/mL | 0.08 µg/mL | 0.3 µg/mL | 5 µg/mL | 1.25 µg/mL | 1.25 µg/mL | 0.08 µg/mL | 2.5 µg/mL | 80 µg/mL | 10 µg/mL | 1.25 µg/mL | – | – | – | – | – | –
CC1(C)S[C@@H]2[C@H](NC(=O)[C@H](NC(=O)Nc3cnc(Nc4ccc(Cl)c(Cl)c4)nc3O)c3ccc(O)cc3)C(=O)N2[C@H]1C(=O)O [J, D-α-[3-(2-m,p-dichloroanilino-4-hydroxy-5-pyrimidyl)-ureido]-p-hydroxybenzyl-penicillin sodium] | – | 2.5 µg/mL | 2.5 µg/mL | 0.02 µg/mL | – | 2.5 µg/mL | 0.6 µg/mL | 0.6 µg/mL | 0.6 µg/mL | 2.5 µg/mL | 10 µg/mL | 2.5 µg/mL | 1.25 µg/mL | – | – | – | – | – | –
CC1(C)S[C@@H]2[C@H](NC(=O)[C@H](NC(=O)Nc3cnc(NC4CCCCC4)nc3O)c3ccc(O)cc3)C(=O)N2[C@H]1C(=O)O [L, D-α-[3-(2-cyclohexylamino-4-hydroxy-5-pyrimidyl)-ureido]-p-hydroxybenzyl-penicillin sodium] | – | 2.5 µg/mL | 10 µg/mL | 0.08 µg/mL | 0.3 µg/mL | 5 µg/mL | 1.25 µg/mL | 1.25 µg/mL | 0.6 µg/mL | 2.5 µg/mL | > 80 µg/mL | 20 µg/mL | 0.6 µg/mL | – | – | – | – | – | –
CC1(C)S[C@@H]2[C@H](NC(=O)[C@H](NC(=O)N3CCN(S(C)(=O)=O)C3=O)c3ccccc3)C(=O)N2[C@H]1C(=O)O [R, reference compound] | – | 20 µg/mL (≈ 37.1 µM) | – | – | – | – | 5 µg/mL (≈ 9.27 µM) | – | – | 40 µg/mL (≈ 74.1 µM) | – | – | 10 µg/mL (≈ 18.5 µM) | – | – | – | – | – | –
CC1(C)S[C@@H]2[C@H](NC(=O)[C@H](NC(=O)Nc3cnc(N4CCOCC4)nc3O)c3ccc(O)cc3)C(=O)N2[C@H]1C(=O)O [K, D-α-[3-(4-hydroxy-2-morpholiono-5-pyrimidyl)-ureido]-p-hydroxybenzyl-penicillin sodium] | – | 1.25 µg/mL | 80 µg/mL | 0.3 µg/mL | 1.25 µg/mL | 10 µg/mL | 2.5 µg/mL | 5 µg/mL | 1.25 µg/mL | 2.5 µg/mL | > 80 µg/mL | > 80 µg/mL | 2.5 µg/mL | – | – | – | – | – | –
